Patent US10577362B2, “Substituted 2, 4-diamino-quinoline derivatives for use in the treatment of proliferative diseases” (GENOSCIENCE PHARMA, priority 2016, dated 2020)

Columns and labels:
[1] = system: MOLM-14 (acute myeloid leukemia) cell line; assay: CellTiter-Glo luminescent cell viability assay, MOLM-14; type: cell-based, human; details: Homo sapiens; for viability at 4 µM: MOLM-14, compound at 4 μM; for viability at 4 µM / viability at 10 µM: 72 h; for viability at 10 µM: MOLM-14, compound at 10 μM
Summary of the method: (§1)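 Adherent cells grow overnight, or suspension cells are seeded 1 h ahead; compound dilutions are then added and plates incubated 72 h at 37 °C. After 30 min at room temperature, CellTiter-Glo reagent is added and luminescence recorded. EC50 derives from signal relative to diluent control.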

[2] = system: A375 (malignant melanoma) cell line; assay: CellTiter-Glo luminescent cell viability assay, A375; type: cell-based, human; details: Homo sapiens, A-375; for viability at 4 µM: A375, compound at 4 μM; for viability at 4 µM / viability at 10 µM: 72 h; for viability at 10 µM: A375, compound at 10 μM
Summary of the method: (§2)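 Luminescent signal, normalised to diluent-treated cultures, defines % viability; EC50 is the concentration lowering it to 50%. Cells had been exposed to compound for 72 h at 37 °C in medium with 10% FBS, at a constant H2O or DMSO percentage.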

[3] = system: HCT-116 (colorectal carcinoma) cell line; assay: CellTiter-Glo luminescent cell viability assay, HCT-116; type: cell-based, human; details: Homo sapiens; for viability at 4 µM: HCT-116, compound at 4 μM; for viability at 4 µM / viability at 10 µM: 72 h; for viability at 10 µM: HCT-116, compound at 10 μM
Summary of the method: as §2

[4] = system: Huh7 (hepatocellular carcinoma) cell line; assay: CellTiter-Glo luminescent cell viability assay, Huh7; type: cell-based, human; details: Homo sapiens, Huh-7; for viability at 4 µM: Huh7, compound at 4 μM; for viability at 4 µM / viability at 10 µM: 72 h; for viability at 10 µM: Huh7, compound at 10 μM
Summary of the method: as §1

[5] = system: 786-O (renal adenocarcinoma) cell line; assay: CellTiter-Glo luminescent cell viability assay, 786-O; type: cell-based, human; details: Homo sapiens, 786-0; for viability at 4 µM / viability at 10 µM: 786-O, 72 h; for viability at 4 µM: compound at 4 μM; for viability at 10 µM: compound at 10 μM
Summary of the method: as §2

[6] = system: HepG2 (hepatocellular carcinoma) cell line; assay: CellTiter-Glo luminescent cell viability assay, HepG2; type: cell-based, human; details: Homo sapiens; for viability at 4 µM / viability at 10 µM: HepG2, HepG, 72 h; for viability at 4 µM: compound at 4 μM; for viability at 10 µM: compound at 10 μM
Summary of the method: as §1

[7] = system: PANC-1 (prancreatic carcinoma) cell line; assay: CellTiter-Glo luminescent cell viability assay, PANC-1; type: cell-based; details: Homo sapiens; for viability at 4 µM: PANC-1, 4 μM; for viability at 4 µM / viability at 10 µM: 72 h, % of signal of diluent-treated cultures; for viability at 10 µM: PANC-1, 10 μM
Summary of the method: as §1

Row | Structure (SMILES) | viability at 4 µM [1] [%] | viability at 10 µM [1] [%] | viability at 4 µM [2] [%] | viability at 10 µM [2] [%] | viability at 4 µM [3] [%] | viability at 10 µM [3] [%] | viability at 4 µM [4] [%] | viability at 10 µM [4] [%] | viability at 4 µM [5] [%] | viability at 10 µM [5] [%] | viability at 4 µM [6] [%] | viability at 10 µM [6] [%] | viability at 4 µM [7] [%] | viability at 10 µM [7] [%] | other results
1 | CC(C)(C)NC1CCN(c2c(C#N)c(NCc3ccc4c(c3)OCO4)nc3ccccc23)CC1 [Compound 3300CN, 2-[(benzo[d][1,3]dioxol-5-ylmethyl)amino]-3-cyano-4-[4-(tert-butylamino)piperidin-1-yl]quinoline] | 70.2 | 0.5 | 47.2 | 0.4 | 13.9 | 0.2 | 63.2 | 0.5 | 60 | 0.8 | 62.7 | 0.5 | 78 | 27.4 | EC50 ([1]; MOLM-14 cell line, 72 h incubation, CellTiter-Glo, read-out: EC50, growth inhibition of MOLM-14): 5 to 10 µM; EC50 ([2]; A375 cell line, 72 h incubation, CellTiter-Glo, read-out: EC50, growth inhibition of A375): 0.5 to 5 µM; EC50 ([3]; HCT-116 cell line, 72 h incubation, CellTiter-Glo, read-out: EC50, growth inhibition of HCT-116): 0.5 to 5 µM; EC50 ([4]; Huh7 cell line, 72 h incubation, CellTiter-Glo, read-out: EC50, growth inhibition of Huh7): 5 to 10 µM; EC50 ([5]; 786-O cell line, 72 h incubation, CellTiter-Glo, read-out: EC50, growth inhibition of 786-O): 5 to 10 µM; EC50 ([6]; HepG2 cell line, 72 h incubation, CellTiter-Glo, read-out: EC50, growth inhibition of HepG2): 5 to 10 µM; EC50 ([7]; PANC-1 cell line, 72 h incubation, CellTiter-Glo, read-out: EC50 (growth inhibition assay of PANC-1 cell line)): 5 to 10 µM
2 | CC(C)(C)NC1CCN(c2c(C#N)c(NCc3ccco3)nc3ccccc23)CC1 [Compound 3302CN, 2-[(furan-2-ylmethyl)amino]-3-cyano-4-[4-(tert-butylamino)piperidin-1-yl]quinoline] | 82.3 | 67 | 81.6 | 14.3 | 57.4 | 10.8 | 76.6 | 40.1 | 86.1 | 48.1 | 83.3 | 57.5 | 95.8 | 82.3 | –
3 | CC(C)(C)NC1CCN(c2c(C#N)c(NCc3cccnc3)nc3ccccc23)CC1 [Compound 3304CN, 2-[(pyridin-3-ylmethyl)amino]-3-cyano-4-[4-(tert-butylamino)piperidin-1-yl]quinoline] | 94.2 | 81 | 99.5 | 74.4 | 70.6 | 41.6 | 93.3 | 82.8 | 98.9 | 80.7 | 91.2 | 83.4 | 99.3 | 98.7 | –
4 | CC(C)(C)NC1CCN(c2c(C#N)c(NCc3ccncc3)nc3ccccc23)CC1 [Compound 3306CN, 2-[(pyridin-4-ylmethyl)amino]-3-cyano-4-[4-(tert-butylamino)piperidin-1-yl]quinoline] | 97.6 | 94.5 | 79.2 | 77.4 | 83.9 | 72.6 | 91.7 | 82.4 | 84 | 71.7 | 83.4 | 71.6 | 101 | 93.3 | –
5 | CC(C)(C)NC1CCN(c2c(C#N)c(NCc3ccccn3)nc3ccccc23)CC1 [Compound 3308CN, 2-[(pyridin-2-ylmethyl)amino]-3-cyano-4-[4-(tert-butylamino)piperidin-1-yl]quinoline] | 85.8 | 57.1 | 96.3 | 67.7 | 72.8 | 32.9 | 88.6 | 74.2 | 101 | 81.1 | 92.6 | 76.5 | 102 | 99.1 | –
